Values quoted from earlier work, collected in patent publication US8771712B2, “Topical administration of acyclovir” (Emisphere Technologies, Inc., priority 2006, dated 2014).

Conditions: humans, microdialysis

Acyclovir concentration (dermis) (after removal of the stratum corneum and infusion of 0.0005% noradrenaline): 3.9 µg/mL
Acyclovir in the dermis (application to intact skin): no acyclovir was detected
Compound: Nc1nc2c(ncn2COCCO)c(=O)[nH]1 [acyclovir, 9-(2-hydroxyethoxymethyl) guanine]
